Results taken from patent US12187715B2, “Small molecule activators of Tie-2” (EyePoint Pharmaceuticals, Inc., priority 2019, dated 2025).
“And” between values parts separate entries of the source, which are not always exact repeats. Equal values may be shown once. “Also recorded” adds a separate entry of the source. Marks after values point to notes of the source that are not given here.

Key:
[1] = Physical stability (appearance) of the aqueous solutions standing at room temperature; assay type: physicochemical; conditions: for Gelation or precipitation of undiluted solution: throughout the 4-week study period (Compound 2: over 5 weeks); for Appearance of solution: undiluted
[2] = Solubility testing in water by portionwise addition until saturation; assay type: physicochemical; conditions: for Amount (g) of compound added until saturation: added portionwise to 10 mL water; for Physical appearance: after portionwise addition to 10 mL water; for Filtration: filtration of the sample attempted after stirring overnight; for solubility at 4 weeks: pH 7, aqueous buffer, 50% dilution with water, adjusted to pH 7, T = 4 weeks; for solubility at 0 weeks: estimated from weight added; for solubility: Conclusions: suspensions stirred overnight, filtered and analyzed by HPLC, initial
Description: The solubility of compounds 2-4 was determined by portionwise addition of the compounds to water until saturation was obtained. Water (10 mL) was added to a 20-mL vial. About 100 mg of Compound 2 was added. The suspension was stirred at room temperature for 20 minutes until the contents became a clear solution. Compound 2 (˜100 mg portionwise) was added repeatedly with 30 min stirring time between the additions. Once a suspension was obtained after continuous stirring for 2 hours, the suspension was stirred overnight. The same procedure was used for the suspension preparations of Compound 3 and Compound 4.
After stirring overnight, filtration of each sample was attempted.
An aliquot of the suspension of Compound 2 was filtered through a 0.22 micron inline syringe filter.
About 1 mL of the aqueous solutions prepared above was diluted with water by 50%. The pH of the 50% diluted solutions was adjusted to pH 7 either by 0.1 N HCl or by 0.1 N NaOH. Solubility values for the three compounds in the solutions/suspensions before and after dilution are given in the in TABLE 3.
The solubility of Compounds 2-4 was determined by portionwise addition of the compounds to water until saturation was obtained. After stirring overnight, the suspensions were filtered and analyzed by HPLC. […] The solubility of Compound 3 was >200 mg/mL. The absolute solubility of Compound 3 was not determined because in the course of analysis, the solution of Compound 3 became too viscous to stir. […] The 50% diluted solutions of Compounds 2-4 were not viscous, and the compounds remained in solution for 4 weeks. […] All of the diluted solutions were easily syringable over 4 weeks' time.

[3] = test system: phospho-Akt1 (pAkt); assay: Phospho-Akt activation assay in human umbilical vein endothelial cells (Western blot); assay type: cell-based; conditions: for Relative potencies for activation of pAkt: HUVECs, 3, 10 and 30 μM
Description: The ability of the small molecule analogues as shown in EXAMPLES 1-3 to stimulate production of phospho-Akt1 (pAkt) was tested. Akt plays a critical role in controlling cell survival and apoptosis, and Akt phosphorylation is increased by the activation of Tie-2. Akt activation can be detected by an antibody that recognizes phosphorylation on the serine 473 residue on Akt.
HUVECs were seeded at 500,000 cells/mL in chemically-defined basal media, and supplemented with distinct growth factors (EGM-2). The following growth factors were required for survival and normal phenotypic expression of endothelial characteristics: fetal bovine serum 2%, hydrocortisone, human fibroblast growth factor-B, vascular endothelial growth factor, recombinant insulin growth factor R3, ascorbic acid, human epidermal growth factor, gentamicin sulfate, amphotericin B, and heparin. Cells were derived from one donor, cultivated in 10 cm dishes, and expanded upon reaching 90% confluence. After three passages, the cells were expanded and ready for testing.
The cells were seeded at 25,000 cells/mL in 6-well plates, and covered with 2 mL of complete media. The cells were fed on day 2 of culture with 2 mL of fresh EGM-2 media. 72 hours after plating, the cells were serum starved by rinsing twice with 2 mL of sterile phosphate buffered saline, and then placed at 37° C. for 3 hours in the presence of basal EGM-2 media (1.5 mL/well without growth factors). The serum starvation allowed the cells to become quiescent.
Compounds 2-4 were dissolved in distilled deionized water at the following concentrations: • Compound 2 (Molecular weight: 622.7): 31 mg/ml. • Compound 3 (Molecular weight: 622.7): 26 mg/ml. • Compound 4 (Molecular weight: 636.7): 32 mg/ml.
All compounds were stored at 4° C. […] Stock concentrations of the above molecules were made at a final working concentration of 1 mM. Specific microliter volumes of the working concentration were added to each 6 well plate at the following concentrations: 3, 10, and 30 micromolar (μM). Cells were treated for 30 minutes.
10× cell lysis buffer was diluted fresh with dH2O. The 1× cell lysis buffer contained: 20 mM Tris-HCl (pH 7.5), 150 mM NaCl, 1 mM Na2EDTA, 1 mM EGTA, 1% Triton, 2.5 mM sodium pyrophosphate, 1 mM β-glycerophosphate, 1 mM Na3VO4, 1 μg/ml leupeptin, and 1 mM PMSF. Immediately before use, 1 mM PMSF was prepared by diluting from a stock of 1 M PMSF made up in DMSO. In addition, a 1× concentration of a Halt protease & phosphatase inhibitor cocktail was included. At the end of the 30 minute treatment, the media was discarded from the cell culture wells by shaking out, and the remaining media was aspirated off the wells. Ice-cold lysis buffer was added at 140 μL/well, and the culture was placed on ice or in a cold room for 30 minutes while rocking. Cell lysates were collected using a cell scraper, placed in microfuge tubes, and stored at −80° C. The levels of protein were quantitated using a microtiter plate BCA protein assay.
2× Laemmli sample buffer was added in equal volume to the […] cell lysis buffer, which contained the lysed endothelial cells. The solution was heated at 100° C. for 5 minutes and then sonicated for 10 seconds. After sonication, the lysates were spun by centrifuge at 4° C. for 5 minutes at 17,000 rpm. 70-100 μg of protein calculated from BCA assay prior to addition of 2× Laemmli sample were added per well of an 8% polyacrylamide gel.
Electrophoresis was performed at 150 volts for approximately 90 minutes at room temperature with 1× Laemmli running buffer. The proteins from the gel were transferred to nitrocellulose at 100 volts for 45 minutes on ice.
The nitrocellulose membranes were removed quickly without drying and placed in phosphate buffered saline (pH 7.3) with 1% nonfat dried milk. The membranes were blocked in the milk solution while rocking for 2 hours at room temperature or overnight at 4° C. […]

[4] = HPLC purity analyses of aqueous solutions over time at room temperature (chemical stability); assay type: physicochemical
[5] = water, thermodynamic from solid, Before dilution, T = 0
[6] = water, thermodynamic from solid
[7] = 50% diluted samples, room temperature, T = 4 weeks
[8] = undiluted samples, T = 0 (dry sample)
[9] = undiluted samples, room temperature, T = 5 weeks
[10] = undiluted samples, room temperature, T = 1 day

COC(=O)N(C)[C@@H](Cc1ccccc1)C(=O)N[C@@H](Cc1ccc(NS(=O)(=O)[O-])cc1)c1csc(-c2cccs2)n1.[Na+] [Compound 2, sodium (4-{(S)-2-{(S)-2-[(methoxycarbonyl)(methyl)amino]-3-phenylpropanamido}-2-[2-(thiophen-2-yl)thiazol-4-yl]ethyl}phenyl)sulfamate]
Time until precipitation was observed ([1]; 50% diluted solution): about 2.5 months | Gelation or precipitation of undiluted solution [1]: gradually developed a precipitate | Time until solution started to show haziness ([1]; undiluted solution): 3 days | Appearance of solution ([1]; T = 0): Clear | Appearance of solution ([1]; T = 2 week): Precipitate | Appearance of solution ([1]; T = 3 week): Precipitate | Appearance of solution ([1]; T = 4 week): Precipitate | Appearance of solution ([1]; T = 1 day): Clear | Appearance of solution ([1]; T = 2 day): Clear | Appearance of solution ([1]; T = 3 day): Slightly hazy | Appearance of solution ([1]; T = 4 day): Small precipitate | Appearance of solution ([1]; T = 5 day): Small precipitate | Appearance of solution ([1]; T = 6 day): Precipitate | Physical state of the preparation ([2]; 50% dilution, T = 4 weeks): (solution) *** | Physical state of the preparation ([2]; Before dilution, T = 0): (suspension) | Amount (g) of compound added until saturation ([2]; room temperature): 2.53 g and 2.528 g | Physical appearance [2]: formed a suspension; also recorded: Precipitate | Filtration [2]: difficult and Yes | Concentration in clear filtrate as share of the concentration of the initial, supersaturated solution ([2]; suspension filtered through 0.22 micron filter after 5 weeks): 25% | solubility at 4 weeks ([2]; water): ~125 mg/mL | solubility at 0 weeks [2, 5]: ~250 mg/mL | solubility at 5 weeks ([2]; water, thermodynamic from solid, Before dilution, T = 5 weeks, room temperature): 49.5 mg/mL | solubility [2, 6]: ~200 mg/mL | pAkt signal above control ([3]; HUVECs, 30 μM, 30 minutes treatment): 300% | Relative potencies for activation of pAkt [3]: Compound 2>Compound 4>Compound 3 | Levels of pAkt (in words) ([3]; HUVECs, sets statement at 30 μM): Noticeable and dose-dependent | HPLC purity [4, 7]: 82% | HPLC purity ([4]; 50% diluted samples, room temperature, T = 6 weeks (reanalysis)): 96.9% and 96.95% | HPLC purity [4, 8]: 99.59% | HPLC purity [4, 9]: 88.99% | HPLC purity ([4]; undiluted samples, room temperature, T = 7 weeks (reanalysis)): 93.9% and 93.93% | HPLC purity [4, 10]: 98.7%

COC(=O)N(C)[C@@H](Cc1ccccc1)C(=O)N(C)[C@@H](Cc1ccc(NS(=O)(=O)[O-])cc1)c1csc(-c2cccs2)n1.[Na+] [Compound 4, sodium (4-{(S)-2-{(S)-2-[(methoxycarbonyl)(methyl)amino]-N-methyl-3-phenylpropanamido}-2-[2-(thiophen-2-yl)thiazol-4-yl]ethyl}phenyl)sulfamate]
Gelation or precipitation of undiluted solution [1]: No gelation or precipitation | Appearance of solution ([1]; T = 0): Clear | Appearance of solution ([1]; T = 2 week): Clear | Appearance of solution ([1]; T = 3 week): Clear | Appearance of solution ([1]; T = 4 week): Clear | Appearance of solution ([1]; T = 1 day): Clear | Appearance of solution ([1]; T = 2 day): Clear | Appearance of solution ([1]; T = 3 day): Clear | Appearance of solution ([1]; T = 4 day): Clear | Appearance of solution ([1]; T = 5 day): Clear | Appearance of solution ([1]; T = 6 day): Clear | Physical state of the preparation ([2]; 50% dilution, T = 4 weeks): (solution) | Physical state of the preparation ([2]; Before dilution, T = 0): (solution) | Solubility value in water ([2]; Before dilution, T = 5 weeks, room temperature): No change* | Amount (g) of compound added until saturation ([2]; room temperature): 0.624 g | Physical appearance [2]: formed a suspension; also recorded: Precipitate | Filtration [2]: proceeded readily and Yes | solubility at 4 weeks ([2]; water): 31 mg/mL | solubility at 0 weeks [2, 5]: 62 mg/mL | solubility [2, 6]: ~58 mg/mL | Relative potencies for activation of pAkt [3]: Compound 2>Compound 4>Compound 3 | HPLC purity [4, 7]: 97.69% | HPLC purity [4, 8]: 98.72% | HPLC purity [4, 9]: 96.53% | HPLC purity [4, 10]: 98.2%
